Data as given in PubChem BioAssay AID1645867 (Buhrlage Lab, Dana-Farber Cancer Institute and Novartis …, 2021).
Active and inactive are the calls of the source. No rule for the calls is given here.

Molecular target: Ubiquitin carboxyl-terminal hydrolase isozyme L1 (Homo sapiens) (UniProt P09936)
Assay: UCH-L1 deubiquitylase inhibitors, biochemical concentration-response, hit retest (AID 1645867)
Conditions: recombinant UCHL1 deubiquitinase activity assay

Chain of Ubiquitin carboxyl-terminal hydrolase isozyme L1 (Homo sapiens) (P09936 whole entry, looked up): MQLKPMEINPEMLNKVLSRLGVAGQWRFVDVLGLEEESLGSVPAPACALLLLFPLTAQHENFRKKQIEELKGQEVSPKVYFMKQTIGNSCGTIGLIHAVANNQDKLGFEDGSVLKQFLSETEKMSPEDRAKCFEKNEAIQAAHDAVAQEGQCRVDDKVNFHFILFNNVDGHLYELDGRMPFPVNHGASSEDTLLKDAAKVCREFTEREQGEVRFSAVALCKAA

SMILES | IC50
COc1ccccc1Nc1ncc(C(=O)NCCc2ccc(Cl)cc2)c2ccccc12 | > 25 µM (inactive)
CCC(C(=O)Nc1ncc2c(n1)CC(c1ccccc1)CC2=O)c1ccccc1 (configuration not stated) | > 25 µM (inactive)
Cc1ccccc1NC(=O)Cn1cc(S(=O)(=O)Cc2ccccc2)c2ccccc21 | > 25 µM (inactive)
O=c1c2cc(Br)ccc2[nH]c(=S)n1Cc1cccnc1 | > 25 µM (inactive)
O=C1CC(c2ccco2)Cc2[nH]c(=O)c(-c3nc(-c4ccc(Cl)cc4)cs3)cc21 (configuration not stated) | > 25 µM (inactive)
CCOc1ccc2c(c1)c(=O)c(C(=O)c1ccccc1)cn2CC(=O)Nc1ccccc1 | > 25 µM (inactive)
O=[N+]([O-])c1ccc(C(O)CN2CCN(Cc3ccccc3)CC2)cc1 (configuration not stated) | > 25 µM (inactive)
O=C(c1ccc2cc[nH]c2c1)N1CCC(Nc2cccnc2)C1 (configuration not stated) | > 25 µM (inactive)
Cc1ccc(NC(=O)Nc2ccc(C)n(CC(=O)Nc3ccc(C)c(C)c3)c2=O)cc1 | > 25 µM (inactive)
CCC(=O)N1CCCC1c1nc2ccccc2n1Cc1ccc(F)cc1 (configuration not stated) | > 25 µM (inactive)
Cc1noc(C)c1CN1CCn2c1nc(-c1ccccc1)cc2=O | > 25 µM (inactive)
Cc1ccc2cc(-c3noc(CCC(=O)NC4CCCC4)n3)c(=O)[nH]c2c1 | > 25 µM (inactive)
CC(C)=CCOC(C)(C)[C@H]1OC2CC[C@@]3(C)C(CCC4Cc5c([nH]c6ccccc56)[C@@]43C)C23OC3[C@@H]1O (some centres not stated) | > 25 µM (inactive)
O=C(Nc1cccc(-c2nc3cnccc3o2)c1)c1ccc(Br)o1 | > 25 µM (inactive)
Cc1cc(NC(=O)c2cc(-c3cccnc3)n[nH]2)ccc1Br | > 25 µM (inactive)
COc1ccccc1OCCSc1nnc(-c2ccc3c(c2)OCCCO3)n1C | > 25 µM (inactive)
COc1ccc(NC(=O)[C@H](C)NC(=O)c2cc3c(OC)cccc3[nH]2)cc1Cl | > 25 µM (inactive)
CC1=C(O)C(=O)C=C2C1=CC=C1[C@@]2(C)CC[C@@]2(C)[C@@H]3C[C@](C)(C(=O)O)CC[C@]3(C)CC[C@]12C | > 25 µM (inactive)
COc1ccc(-c2noc(-c3nnn(CC(=O)Nc4ccc(OC)cc4OC)c3N)n2)cc1 | > 25 µM (inactive)
Cn1c(=O)c(N2CCOCC2)nc2c(OCc3ccccc3)nc(N)nc21 | > 25 µM (inactive)
O=C(Cc1c[nH]c2ccccc12)N1CCc2cc(-c3ccno3)ccc21 | > 25 µM (inactive)
Cc1ccc(S(=O)(=O)N2CCCCC2)cc1NC(=O)c1ccc(C#N)cc1 | > 25 µM (inactive)
CCOc1ccc(-n2ccnc(SCC(=O)Nc3ccccc3Cl)c2=O)cc1 | > 25 µM (inactive)

SMILES | IC50
O=C(c1ccccc1F)c1cc(Cl)ccc1NC(=O)C1CCCO1 (configuration not stated) | > 25 µM (inactive)
CCC(C(=O)C(C)C(O)C(C)CCc1ccc(C)c(O)c1C(=O)O)C1OC(CC)(C2CCC(O)(CC)C(C)O2)CC1C (configuration not stated) | > 25 µM (inactive)
N#Cc1c(-c2ccc(Cl)cc2)ccn2nc(CCC(=O)O)nc12 | > 25 µM (inactive)
C=Cc1cc(OC)c2c(c1)c(=O)oc1c2cc(OC)c2c(O)ccc([C@H]3OC(C)[C@@H](OC(C)=O)C(N(C)C)C3O)c21 (some centres not stated) | > 25 µM (inactive)
Cc1ccc(NC(=O)Cn2cc(C(=O)c3ccccc3)c(=O)c3cc(C)ccc32)cc1 | > 25 µM (inactive)
Cc1ccc(NC(=O)Cc2nnc3cc(-c4nc(C)no4)ccn23)cc1 | > 25 µM (inactive)
O=C1CC(c2ccccc2O)Oc2ccccc21 (configuration not stated) | > 25 µM (inactive)
O=C(c1cncs1)N1CCc2[nH]nc(Nc3ccccc3)c2C1 | > 25 µM (inactive)
CCCC1(c2ccccc2)NC(=O)N(Cc2ccc(Cl)cc2)C1=O (configuration not stated) | > 25 µM (inactive)
COc1cc(O)cc2c1C(=O)OC(C)CCCCCCC2 (configuration not stated) | > 25 µM (inactive)
O=C(CSc1ccc2nnc(-c3cccc(F)c3)n2n1)N1CCCc2ccccc21 | > 25 µM (inactive)
O=C(COc1ccc(N2CC(C(=O)NCc3ccc4c(c3)OCO4)CC2=O)cc1)Nc1ccc(F)cc1 (configuration not stated) | > 25 µM (inactive)
O=c1[nH]cccc1NS(=O)(=O)c1ccc(F)cc1 | > 25 µM (inactive)
COc1ccc(CCN2COc3c(cc(Cl)c4cccnc34)C2)cc1OC | > 25 µM (inactive)
Cc1c(Cl)ccc2sc(N3CCN(C(=O)c4ccn(C)n4)CC3)nc12 | > 25 µM (inactive)
CCOc1cccc(-c2noc(-c3nn(-c4ccccc4)ccc3=O)n2)c1 | > 25 µM (inactive)
Cc1ccc(Cn2nc(C)c(C(=O)N3CCCc4cc(C)ccc43)c2C)cc1 | > 25 µM (inactive)
CCN(CC)Cc1ccc(-c2nnc(-c3cnc4onc(C)c4c3)o2)o1 | > 25 µM (inactive)
O=c1c2cc(-c3ccccc3)nn2ccn1Cc1noc(CN2CCCCC2)n1 | > 25 µM (inactive)
O=C(Cn1cccc(-c2nc(-c3ccccc3)no2)c1=O)Nc1ccccc1F | > 25 µM (inactive)
Cc1ccc(/C=C/C(=O)c2oc3ccc(F)cc3c2C)cc1 | > 25 µM (inactive)
Cc1cccc(NC(=O)Cn2cnc(-c3noc(-c4ccccc4)n3)c2)c1C | > 25 µM (inactive)
COc1ccc(OC)c(C2=NO[C@]3(C(=O)Nc4ccccc43)[C@H]2C(=O)c2ccc(OC)c(OC)c2)c1 | > 25 µM (inactive)

SMILES | IC50
COc1cc(OC)cc(N2C(=O)N(CC(=O)c3ccc(Br)cc3)c3ccccc3S2(=O)=O)c1 | > 25 µM (inactive)
CCOc1ccc(C2/C(=C(\O)c3ccccc3)C(=O)C(=O)N2c2nc3ccc(F)cc3s2)cc1 (configuration not stated) | > 25 µM (inactive)
O=C(C1CCCCC1)N1CCC(c2nc3c(nnn3Cc3cccc(F)c3)c(=O)[nH]2)CC1 | > 25 µM (inactive)
N#Cc1cccc(C(=O)Nc2cccc(Oc3ccccc3)c2)c1 | > 25 µM (inactive)
Cc1ccc(-n2ccn3c(CCC(=O)NCc4ccc(F)cc4)nnc3c2=O)cc1C | > 25 µM (inactive)
COc1ccccc1N/C=C/c1onc(-c2c(F)cccc2Cl)c1C#N | > 25 µM (inactive)
O=C1CC(c2nc3ccccc3n2CCOc2ccccc2)CN1Cc1ccccc1 (configuration not stated) | > 25 µM (inactive)
O=C(Nc1cccc(Br)c1)c1cc(-c2cccnc2)n[nH]1 | > 25 µM (inactive)
CN(C)[C@@H]1C(=O)C(C(N)=O)=C(O)[C@@]2(O)C(=O)C3=C(O)c4c(O)cccc4[C@@](C)(O)[C@H]3C[C@@H]12 | > 25 µM (inactive)
O=C(COc1ccc(Cl)cc1)Nc1noc(-c2cccs2)n1 | > 25 µM (inactive)
Cc1ccc(-n2c(=O)[nH]c3c(C(N)=O)nc(-c4ccc(OCc5ccccc5)cc4)nc32)cc1 | > 25 µM (inactive)
N#C/C(=C\c1ccc(OCc2cccc(C(=O)O)c2)cc1)c1ccc(F)cc1 | > 25 µM (inactive)
O=C(Cn1nnc2ccccc21)Nc1nc(-c2ccc3c(c2)CCN3C(=O)c2ccccc2F)cs1 | > 25 µM (inactive)
Cc1nc(-c2ccc(C(=O)Nc3ccc(F)cc3)cc2)cs1 | > 25 µM (inactive)
Cc1ccc(NC(=O)c2nnn(CC(=O)Nc3cccc(C)c3C)c2N)cc1C | > 25 µM (inactive)
CSc1ccc([C@H]2[C@@H](C(=O)O)c3ccccc3C(=O)N2Cc2ccc(F)cc2)cc1 | > 25 µM (inactive)
CCc1ccccc1NC(=O)Cn1c(SCc2ccc(F)cc2)nc2cccnc21 | > 25 µM (inactive)
COc1c2nc3ccccc3oc-2cc(=O)c1OC | > 25 µM (inactive)
O=C(Nc1ccc2c(c1)OCO2)c1cncc(NS(=O)(=O)c2ccccc2)c1 | > 25 µM (inactive)
Cc1ccc(NC(=O)C2C3C=CC4(O3)C2C(=O)N(C2CCCCC2)C4C(=O)NC2CCCCC2)cc1C (configuration not stated) | > 25 µM (inactive)
COc1ccc(CNC(=O)CCCc2nnc3c(=O)n(-c4cc(C)cc(C)c4)ccn23)cc1 | > 25 µM (inactive)
Cc1nn(-c2ccc(F)cc2)c(C)c1S(=O)(=O)N1CCN(c2ncccn2)CC1 | > 25 µM (inactive)
CCN1C(=O)c2ccccc2C(=O)[C@@]2(C)CN(C(=O)c3ccccc3)C[C@@H]12 | > 25 µM (inactive)

SMILES | IC50
O=C(NC1CC2(CCOCC2)Oc2ccccc21)c1cnccn1 (configuration not stated) | > 25 µM (inactive)
O=c1c(O)c(-c2ccc(O)c(O)c2)oc2cc(O)cc(O)c12 | 2.32 µM
N#Cc1ccc(COC(=O)C(O)(c2ccccc2)c2ccccc2)cc1 | > 25 µM (inactive)
O=C(CSc1ccc(-c2cccc([N+](=O)[O-])c2)nn1)Nc1cccc(F)c1 | > 25 µM (inactive)
Cc1nn(-c2ccccc2)c2c1C1(C(=O)Nc3ccccc31)N1C(=N2)Sc2ccccc21 (configuration not stated) | > 25 µM (inactive)
O=C(Cn1c(=O)n(Cc2ccccc2)c(=O)c2ncccc21)NCc1ccccc1Cl | > 25 µM (inactive)
COc1ccc(Nc2nnc(Cc3ccc(Cl)cc3)c(=O)[nH]2)cc1 | > 25 µM (inactive)
CCOc1ccc(-c2ccc3nnc(SCC(=O)Nc4ccc(F)cc4)n3n2)cc1 | > 25 µM (inactive)
Cc1cc(Nc2ncc(Cl)cc2Cl)n(-c2ccccc2)n1 | > 25 µM (inactive)
CCc1cccc(CC)c1NC(=O)COC(=O)c1cc2cccc(OC)c2oc1=O | > 25 µM (inactive)
O=C(CN1CC(=O)c2ccccc2S1(=O)=O)Nc1ccccc1 | > 25 µM (inactive)
Cc1cc(C)n2nc(Cc3ccccc3)nc2n1 | > 25 µM (inactive)
Cc1oncc1C(=O)N1CC[C@H]2CO[C@H](CN3CCOCC3)[C@H]2C1 | > 25 µM (inactive)
Oc1cccc2c(-c3ccc(O)c4c(O)cccc34)ccc(O)c12 | 10.7 µM
Cn1c(=O)c2c3c(cnc2n(C)c1=O)C(=O)CC(c1ccccc1)C3 (configuration not stated) | > 25 µM (inactive)
C(=C\c1nc(-c2cccc(-c3ccn[nH]3)c2)no1)/c1ccco1 | > 25 µM (inactive)
O=C(NCc1ccc(Br)cc1)c1cc(-c2cccnc2)n[nH]1 | > 25 µM (inactive)
Cc1ccc(C2CC(=O)C3=C(C2)Nc2ccccc2N(C(=O)c2ccccc2)C3c2ccccc2)cc1 (configuration not stated) | > 25 µM (inactive)
Cc1ccc(C)c(Cn2cnc3c(nnn3-c3cccc(F)c3)c2=O)c1 | > 25 µM (inactive)
Cc1c(Cl)cccc1NC(=O)Cn1cc(C(=O)C2CC2)c2ccccc21 | > 25 µM (inactive)
c1ccc(-c2ccc(NCc3ccc4c(c3)OCO4)nn2)cc1 | > 25 µM (inactive)
COc1c(C(=O)Nc2nnc(C3CC3)s2)csc1Cl | > 25 µM (inactive)
CCc1cccc(C)c1NC(=O)Cn1nc2ccc(C(=O)NCc3ccccc3)cn2c1=O | > 25 µM (inactive)
